Data published in CN117771387A, “糖响应性复合物及其制备方法和应用” (priority 2022, dated 2024).

Columns and labels:
AKT信号磷酸化 = test: In vitro activity of Glu-insulin: AKT phosphorylation in HepG2 cells (western blot); format: cell-based; details: 10 min, 0-100nM
1型糖尿病小鼠 = test: Blood glucose lowering by Glu-insulin in STZ-induced type 1 diabetic mice; format: in vivo, C57BL/6小鼠; details: s.c., insulin-equivalent dose 1.5mg/kg

## Glu-insulin: Recombinant human insulin modified with gluconic acid at A1 (N-terminus of the α chain) [葡萄糖酸基胰岛素]
AKT信号磷酸化
  Activity on AKT phosphorylation compared with recombinant human insulin: 显示出与未修饰的重组人胰岛素相似的活性
1型糖尿病小鼠
  Blood glucose lowering effect compared with recombinant human insulin: 仍有与重组人胰岛素类似的降糖效果
